Data as given in PMC7177849, “Gut Microbial Catabolites of Tryptophan Are Ligands and Agonists of the Aryl Hydrocarbon Receptor: A Detailed Characterization” (International Journal of Molecular Sciences, 2020).
Where two headings read alike, the source gives them in different places.

Key:
[1] = test system: CYP1A1 mRNA; parameters: method as in PMID 24563545; settings: 100 µM IAA, cited from earlier work
[2] = test system: CYP1A1 mRNA; assay: CYP1A1 mRNA (qRT-PCR) in intestinal LS180 cells; type: cell-based, human; settings: LS180 cells co-incubated with TCDD (10 nM), 24 h
Procedure: (§1) Figure 4 Effects of MICT on the induction of CYP1A1 mRNA in human hepatic and intestinal cells. Cultured cells were incubated for 24 h with the vehicle (DMSO; 0.1% v/v) and tested MICT in the presence or absence of TCDD (10 nM). RT-PCR determined the level of CYP1A1 mRNA, and the data were normalized per GAPDH mRNA level. […] (A,B) Experiments in three consecutive passages of human colon adenocarcinoma cell line LS180 in the absence (A) and the presence (B) of 10 nM TCDD. The bar graphs show the percentage of maximal induction attained by TCDD and are expressed as the mean ± SD. (C) Experiments in three consecutive passages of wild-type (AhR^+/^+) and AhR-knockout (AhR^−/^−) HT-29 cells. […] (D) Primary human hepatocytes from three different donors (LH79, Hep2201020, and Hep2201021).
(§2) Total RNA was isolated using TRI Reagent® (Sigma Aldrich, Prague, Czech Republic). cDNA was synthesized using M-MuLV reverse transcriptase (New England Biolabs, Ipswich, MA, USA). The reverse transcription was performed at 42 °C for 60 min using Random Primers 6 (New England Biolabs, Ipswich, MA, USA) and diluted in a 1:4 ratio by PCR-grade water. The quantitative reverse transcriptase-polymerase chain reaction (qRT-PCR) was performed on the Lightcycler 480 II using the LightCycler ® 480 Probes Master (Roche Diagnostic Corporation, Prague, Czech Republic). The levels of CYP1A1 and GAPDH mRNAs were determined using the Universal Probe Library probes (UPL; Roche Diagnostic Corporation, Prague, Czech Republic) in combination with specific primers, using a protocol described elsewhere. All measurements were performed in triplicates, and the gene expression was normalized to glyceraldehyde-3-phosphate dehydrogenase (GAPDH) as a house-keeping gene. The data were processed using the delta-delta Ct method and expressed as a fold induction over the negative control (DMSO) or as a percentage of the positive control (maximal induction by TCDD).

[3] = test system: mouse AhR; parameters: method as in PMID 9708986; settings: cited from earlier work
[4] = test system: AhR; parameters: method as in PMID 27158904; settings: IAA approx. 5000 µM; cited from earlier work
[5] = test system: CYP1A1 mRNA; assay: Summary of CYP1A1 gene expression in human hepatic and intestinal cells; type: cell-based; settings: for induction of CYP1A1 mRNA: 200 µM, LS180 cells, HT-29 cells, and primary human hepatocytes; for Gene Expression: Table 1 summary class, CYP1A1
Procedure: as §1, §2

[6] = test system: guinea pig AhR; parameters: method as in PMID 9708986; settings: cited from earlier work
[7] = target: T1, AhR (Homo sapiens, UniProt P35869); assay: Reporter gene assay in AZ-AHR cells, agonist analyses (luciferase)
T1 sequence (P35869 11-848): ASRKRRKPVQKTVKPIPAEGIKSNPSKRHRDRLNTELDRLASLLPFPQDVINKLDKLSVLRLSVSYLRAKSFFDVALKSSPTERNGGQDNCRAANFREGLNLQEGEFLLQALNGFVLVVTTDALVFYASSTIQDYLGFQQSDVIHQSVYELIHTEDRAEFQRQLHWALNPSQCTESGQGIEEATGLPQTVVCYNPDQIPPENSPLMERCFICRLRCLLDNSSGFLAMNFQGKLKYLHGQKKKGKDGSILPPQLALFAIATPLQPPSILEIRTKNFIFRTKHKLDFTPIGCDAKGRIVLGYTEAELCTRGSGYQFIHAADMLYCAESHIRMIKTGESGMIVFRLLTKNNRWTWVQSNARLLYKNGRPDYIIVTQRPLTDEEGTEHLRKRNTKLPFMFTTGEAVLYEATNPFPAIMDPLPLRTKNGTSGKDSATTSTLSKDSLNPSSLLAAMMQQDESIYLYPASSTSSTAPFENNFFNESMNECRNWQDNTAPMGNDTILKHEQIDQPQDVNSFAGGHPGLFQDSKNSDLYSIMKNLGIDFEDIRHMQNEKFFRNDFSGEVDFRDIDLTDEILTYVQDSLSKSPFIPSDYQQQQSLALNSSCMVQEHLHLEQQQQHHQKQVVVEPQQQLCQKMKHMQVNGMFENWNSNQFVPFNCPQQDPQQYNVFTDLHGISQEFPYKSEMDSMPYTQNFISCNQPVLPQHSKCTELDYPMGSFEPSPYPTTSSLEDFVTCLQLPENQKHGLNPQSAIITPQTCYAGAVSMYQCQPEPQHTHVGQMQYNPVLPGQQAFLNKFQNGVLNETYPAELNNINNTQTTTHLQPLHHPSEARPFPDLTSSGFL
Procedure: (§3) In the first series of experiments, we evaluated the agonistic and antagonistic effects of MICT on the AhR activation. […] The antagonistic effects of MICT were evaluated against typical full agonists of the AhR, comprising TCDD, BaP, and FICZ, which were applied at fixed concentrations corresponding to their EC80.
(§4) Following the treatments, we lysed cells, and luciferase activity was measured. Experiments were performed at least in four consecutive cell passages. Incubations were performed in quadruplicates (technical replicates). In agonist analyses, the data from a representative experiment, expressed as a fold induction of luciferase activity over control cells, are shown. In antagonist analyses, the data are a percentage of maximal induction, and they are the mean ± SD.
(§5) Then, cells were lysed, and luciferase activity was measured using the Tecan Infinite M200 plate luminometer (Schoeller Instruments, Czech Republic). The experiments were performed in at least four consecutive cell passages, and the treatments were in quadruplicates (technical replicates). The values of half-maximal effective concentration (EC50) for each MICT, and half-maximal inhibitory concentration (IC50—where appropriate) were calculated.
Supplementary Figure 2. Tryptophan effects in culture medium on AhR activity. (A) Time-course of Trp
levels in culture media from hepatic (AZ-AHR), instestinal (LS174T) and skin (HaCaT) cells. Determined by
HPLC. (B) Induction of AhR-dependent luciferase activity in AZ-AHR cells incubated for 24 h with TCDD,
Indole and Trp in Trp/serum-free culture medium. (C) Induction of AhR-dependent luciferase activity in
AZ-AHR cells incubated for 24 h with TCDD and Indole in standard (+Trp/+FBS), serum-free (+Trp/-FBS),
Trp-free (-Trp/+FBS) and Trp/serum-free (-Trp/-FBS) culture medium. […]

[8] = target: T2, murine AhR (Mus musculus, UniProt P30561); assay: Competitive radio-ligand ([3H]-TCDD) AhR binding assay, cytosols from Hepa1c1c7 cells; settings: data not shown
T2 sequence (P30561 10-805): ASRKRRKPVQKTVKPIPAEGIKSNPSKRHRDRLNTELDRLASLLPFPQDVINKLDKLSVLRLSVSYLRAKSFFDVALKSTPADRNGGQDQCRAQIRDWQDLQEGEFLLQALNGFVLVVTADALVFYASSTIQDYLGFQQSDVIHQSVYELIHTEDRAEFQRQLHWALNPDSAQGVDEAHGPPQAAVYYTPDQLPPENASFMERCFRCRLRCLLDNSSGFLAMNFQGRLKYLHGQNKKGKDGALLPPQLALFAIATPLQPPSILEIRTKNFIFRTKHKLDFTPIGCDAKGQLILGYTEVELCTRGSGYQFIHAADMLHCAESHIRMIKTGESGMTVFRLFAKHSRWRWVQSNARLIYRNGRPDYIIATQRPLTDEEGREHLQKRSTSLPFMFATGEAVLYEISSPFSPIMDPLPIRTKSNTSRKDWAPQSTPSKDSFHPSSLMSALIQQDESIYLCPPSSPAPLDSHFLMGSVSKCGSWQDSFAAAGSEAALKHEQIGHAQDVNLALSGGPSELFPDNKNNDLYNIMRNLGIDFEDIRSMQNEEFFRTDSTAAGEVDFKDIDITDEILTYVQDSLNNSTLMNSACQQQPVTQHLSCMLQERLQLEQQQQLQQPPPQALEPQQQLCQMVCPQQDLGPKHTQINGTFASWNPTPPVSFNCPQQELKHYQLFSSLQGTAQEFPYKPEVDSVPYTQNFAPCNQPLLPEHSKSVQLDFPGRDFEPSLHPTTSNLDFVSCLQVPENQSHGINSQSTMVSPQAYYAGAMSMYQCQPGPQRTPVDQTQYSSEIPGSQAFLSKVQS
Procedure: Figure 2 Competitive radio-ligand binding assay. Cytosols from Hepa1c1c7 cells were incubated with vehicle (negative control; 0.1% V/V), FICZ (positive control; 0.01 nM – 10 nM), TCDF (non-specific binding; 200 nM) and increasing doses of MICT in the presence of 2 nM [^3H]-TCDD. The specific binding of [^3H]-TCDD was determined as a difference between total and non-specific (200 nM; TCDF) reactions (value for vehicle DMSO; 0.1% V/V = corresponds to specific binding of [^3H]-TCDD = 100%). At least two independent experiments were performed and the incubations were done in triplicates in each experiment (technical replicates).
Ligand binding assay was performed using cytosolic protein extracts from murine Hepa1c1c7 cells as described. Briefly, aliquots of protein (2 mg/mL) were incubated at the room temperature for two (2) h with 2 nM [^3H]-TCDD in the presence of DMSO (vehicle control), FICZ (positive control), 200 nM TCDF (non-specific binding) or increasing concentration of MICT. After the incubation, the hydroxyapatite slurry was added to the samples and the suspension was incubated on ice and washed three times with HEGT buffer. The hydroxyapatite pellet was re-suspended in scintillation cocktail, and radioactivity was determined in a liquid scintillation counter. The specific binding of [^3H]-TCDD was determined by subtracting the radioactivity of non-specific reaction (TCDF) from total radioactivity. The values of IC50 were calculated where appropriate.

[9] = test system: AhR; parameters: method as in PMID 26235394; settings: 10 µM IPA, HepG2 cells; cited from earlier work
[10] = target: T1, AhR; assay: Reporter gene assay in AZ-AHR cells, antagonist analyses against TCDD, BaP, FICZ
Procedure: as §3
as §4, with “AZ-AHR cells were incubated for 24 h with vehicle (DMSO; 0.1% v/v) and increasing concentrations of MICT, in the absence (agonist analyses) or the presence (antagonist analyses) of TCDD (13.5 nM), BaP (15.8 µM) and FICZ (22.6 µM). Following” for “Following”
as §5, with “AZ-AHR cells were incubated for 24 h with vehicle (DMSO; 0.1% v/v) and increasing concentrations of tested MICT in the presence or absence of TCDD (13.5 nM), FICZ (22.6 µM), or BaP (15.8 µM). Then,” for “Then,”

Row | SMILES | induction of CYP1A1 mRNA ([1]; Caco-2 and MDA-MB-231 cells) | induction of CYP1A1 mRNA ([1]; MDA-MB-468 cells) | antagonistic effects on CYP1A1 mRNA [2] | concentration at which activation of AhR was described [3] | activation of the AhR [4] | induction of CYP1A1 mRNA [5] | Gene Expression [5] | concentration at which activation of AhR was described [6] | activation of AhR [7] | displacement of 3H-TCDD from binding at the murine AhR [8] | activation of AhR ([7]; AZ-AHR cells, 200 µM) | fold induction of luciferase activity (efficacy) ([7]; AZ-AHR cells, 24 h, up to 200 µM (IAC 100 µM, IND 10 mM), plateau not reached) | EC50 ([7]; EC50, AZ-AHR cells, 24 h, agonist analyses) | Efficacy (EMAX) ([7]; Table 1 summary class) | Potency (EC50) ([7]; Table 1 summary class) | AhR activation [9] | antagonistic effect against full agonists ([10]; AZ-AHR cells, 24 h, TCDD, BaP and FICZ at EC80) | Antagonism (IC50) ([10]; Table 1 summary class)
1 | O=C(O)Cc1c[nH]c2ccccc12 [IAA, indole-3-acetate] | ≈ 5 fold | not | to a lesser extent | 2 mM | 15 fold | no induction | inactive | 2 mM |  |  |  |  |  |  |  |  |  | 
2 | N[C@@H](Cc1c[nH]c2ccccc12)C(=O)O [Trp, tryptophan] |  |  |  |  |  |  |  |  | did not activate | did not displace |  |  |  |  |  |  |  | 
3 | O=C(O)CCc1c[nH]c2ccccc12 [IPA, indole-3-propionate] |  |  | to a lesser extent |  |  | no induction | inactive |  |  |  | negligible activation | ≈ 8 fold | 98.3 ± 5.72 µM | low | low | no AhR activation | no antagonistic effects | none
